# Assay results reported in patent US9200005B2, “Inhibitor compounds of phosphodiesterase type 10A” (AbbVie Deutschland GmbH & Co. KG, priority 2013, dated 2015).
# Counter-ions that a name gives are not always drawn.
# Assays:
# [1] = Determination of the microsomal half-life / microsomal clearance, rat liver microsomes; assay type: in vitro ADME; details: 0.5 μM test substance, 0.25 mg of microsomal protein/mL, NADPH, 37° C.
# Experimental: (§1) b) Determination of the Microsomal Half-Life:
# (§2) The metabolic stability of the compounds of the invention was determined in the following assay.
# (§3) The test substances were incubated in a concentration of 0.5 μM as follows:
# (§4) 0.5 μM test substance are preincubated together with liver microsomes from different species (from rat, human or other species) (0.25 mg of microsomal protein/mL) in 0.05 M potassium phosphate buffer of pH 7.4 in microtiter plates at 37° C. for 5 min. The reaction is started by adding NADPH (1 mg/mL). After 0, 5, 10, 15, 20 and 30 min, 50 μl aliquots are removed, and the reaction is immediately stopped and cooled with the same volume of acetonitrile. The samples are frozen until analyzed. The remaining concentration of undegraded test substance is determined by MSMS. The half-life (T½) is determined from the gradient of the signal of test substance/unit time plot, it being possible to calculate the half-life of the test substance, assuming first order kinetics, from the decrease in the concentration of the compound with time. The microsomal clearance (mCl) is calculated from mCl=ln 2/T½/(content of microsomal protein in mg/mL)×1000 [mL/min/mg] (modified from references: Di, The Society for Biomoleculur Screening, 2003, 453-462; Obach, DMD, 1999 vol 27. N 11, 1350-1359).
# [2] = molecular target: PDE10A (UniProt Q9Y233); assay: Measurement of PDE activity (HTRF cAMP kit, recombinant PDE10A); assay type: biochemical, human, rat and mouse; details: substrate 20 nM, 60 minutes at 29° C.
# Experimental: a) Measurement of PDE Activity
# The recombinant PDE proteins are used in in vitro enzymatic reaction for measurement of PDE activity. These recombinant proteins, including PDE10A (human, rat and mouse PDE10) and isoforms of PDEs 1, 3, 4, and 5, were purchased from commercial vendor BPS Bioscience. The enzymatic activity of PDEs was determined by cAMP measurement kit from CisBio (IBA) using HTRF technology.
# The PDE enzymatic reaction was carried out in assay buffer (20 mM Tris-HCl pH 7.5, 10 mM MgCl2, 0.1% bovine serum albumin) containing enzyme and substrate. […] The substrate cyclic nucleotide (cAMP or cGMP) concentration used in the assay was 20 nM for PDE10, and 100 nM for other PDEs. The inhibitory effect of compound was determined by incubating various concentration of inhibitor in the enzymatic assay. […] Next, the compound at varying concentration was mixed with PDE enzyme. The reaction was initiated by addition of cyclic nucleotide substrate, and incubated for 60 minutes at 29° C. The reaction was stopped by addition of lysis buffer from the assay kit. The cAMP-d2 and anti-cAMP cryptate in the lysis buffer detected the level of cAMP left from the PDE hydrolysis reaction. […] Thus, IC50 value of inhibitor can be obtained by plotting inhibitor concentration against PDE activity at that concentration.
# [3] = Determination of the microsomal half-life / microsomal clearance, human liver microsomes; assay type: in vitro ADME; details: 0.5 μM test substance, 0.25 mg of microsomal protein/mL, NADPH, 37° C.
# Experimental: as §1, §2, §3, §4
Compound,IC50 [2],further results
"3-[4-oxo-7-(pyridin-4-yl)-5-(2,2,2-trifluoroethyl)-4,5-dihydrothieno[2,3-d]pyridazin-3-yl]benzonitrile [Example 127]",< 100 nM,Rat mCl [1]: ++ (++: <100 μl min^−1 mg^−1); Human mCl [3]: ++ (++: <100 μl min^−1 mg^−1)
"Cn1nc(-c2ccncc2)c2scc(NC3COC3)c2c1=O [Example 2, 5-methyl-3-(oxetan-3-ylamino)-7-(pyridin-4-yl)thieno[2,3-d]pyridazin-4(5H)-one]",200 to 500 nM,Rat mCl [1]: + (+: 100-220 μl min^−1 mg^−1); Human mCl [3]: ++ (++: <100 μl min^−1 mg^−1)
"Cn1nc(-c2ccncc2)c2scc(N3CCOCC3)c2c1=O [Example 3, 5-methyl-3-(morpholin-4-yl)-7-(pyridin-4-yl)thieno[2,3-d]pyridazin-4(5H)-one]",200 to 500 nM,Rat mCl [1]: ++ (++: <100 μl min^−1 mg^−1); Human mCl [3]: ++ (++: <100 μl min^−1 mg^−1)
"Cn1nc(-c2ccncc2)c2scc(-c3cncnc3)c2c1=O [Example 11, 5-methyl-7-(pyridin-4-yl)-3-(pyrimidin-5-yl)thieno[2,3-d]pyridazin-4(5H)-one (hydrochloride salt)]",,Rat mCl [1]: ++ (++: <100 μl min^−1 mg^−1); IC50 ([2]; (hydrochloride salt)): 100 to 200 nM; Human mCl [3]: ++ (++: <100 μl min^−1 mg^−1)
"Cn1nc(-c2ccncc2)c2scc(-c3cccnc3)c2c1=O.O=C(O)C(F)(F)F [Example 14, 5-methyl-3-(pyridin-3-yl)-7-(pyridin-4-yl)thieno[2,3-d]pyridazin-4(5H)-one bis(trifluoroacetate)]",100 to 200 nM,Rat mCl ([1]; bis(trifluoroacetate)): ++ (++: <100 μl min^−1 mg^−1); Human mCl [3]: ++ (++: <100 μl min^−1 mg^−1)
"Cn1nc(NCc2ccccc2)c2scc(-c3ccncc3)c2c1=O.O=C(O)C(F)(F)F.O=C(O)C(F)(F)F [Example 50, 7-(benzylamino)-5-methyl-3-(pyridin-4-yl)thieno[2,3-d]pyridazin-4(5H)-one bis(trifluoroacetate)]",100 to 200 nM,Rat mCl [1]: ++ (++: <100 μl min^−1 mg^−1); Human mCl [3]: ++ (++: <100 μl min^−1 mg^−1)
"Cn1nc(OCc2ccco2)c2scc(-c3ccncc3)c2c1=O [Example 52, 7-(furan-2-ylmethoxy)-5-methyl-3-(pyridin-4-yl)thieno[2,3-d]pyridazin-4(5H)-one]",100 to 200 nM,Rat mCl [1]: + (+: 100-220 μl min^−1 mg^−1); Human mCl [3]: ++ (++: <100 μl min^−1 mg^−1)
"Cn1nc(-c2cnn(CC(F)(F)F)c2)c2scc(-c3ccncc3)c2c1=O [Example 100, 5-methyl-3-(pyridin-4-yl)-7-[1-(2,2,2-trifruoroethyl)-1H-pyrazol-4-yl]thieno[2,3-d]pyridazin-4(5H)-one bis(trifluoroacetate)]",< 100 nM,
"COc1ccc(-c2nn(C)c(=O)c3c(-c4ccncc4)csc23)cc1OC [Example 102, 7-(3,4-dimethoxyphenyl)-5-methyl-3-(pyridin-4-yl)thieno[2,3-d]pyridazin-4(5H)-one trifluoroacetate]",< 100 nM,
"Cn1nc(-c2ccnc(F)c2)c2scc(-c3ccncc3)c2c1=O [Example 104, 7-(2-fluoropyridin-4-yl)-5-methyl-3-(pyridin-4-yl)thieno[2,3-d]pyridazin-4(5H)-one bis(trifluoroacetate)]",100 to 200 nM,
"Cn1nc(-c2cccc(Cl)c2)c2scc(-c3ccncc3)c2c1=O [Example 105, 7-(3-chlorophenyl)-5-methyl-3-(pyridin-4-yl)thieno[2,3-d]pyridazin-4(5H)-one trifluoroacetate]",200 to 500 nM,
"Cn1nc(-c2cccc(O)c2)c2scc(-c3ccncc3)c2c1=O [Example 107, 7-(3-hydroxyphenyl)-5-methyl-3-(pyridin-4-yl)thieno[2,3-d]pyridazin-4(5H)-one trifluoroacetate (salt)]",< 100 nM,
"Cn1nc(-c2ccc(Cl)cc2)c2scc(-c3ccncc3)c2c1=O [Example 110, 7-(4-chlorophenyl)-5-methyl-3-(pyridin-4-yl)thieno[2,3-d]pyridazin-4(5H)-one trifluoroacetate]",200 to 500 nM,
"COc1cc(OC)cc(-c2nn(C)c(=O)c3c(-c4ccncc4)csc23)c1 [Example 111, 7-(3,5-dimethoxyphenyl)-5-methyl-3-(pyridin-4-yl)thieno[2,3-d]pyridazin-4(5H)-one trifluoroacetate]",100 to 200 nM,
"Cn1nc(-c2cccc(OC(F)(F)F)c2)c2scc(-c3ccncc3)c2c1=O [Example 112, 5-methyl-3-(pyridin-4-yl)-7-[3-(trifluoromethoxy)phenyl]thieno[2,3-d]pyridazin-4(5H)-one trifluoroacetate]",200 to 500 nM,
"COc1ccccc1-c1nn(C)c(=O)c2c(-c3ccncc3)csc12 [Example 113, 7-(2-methoxyphenyl)-5-methyl-3-(pyridin-4-yl)thieno[2,3-d]pyridazin-4(5H)-one trifluoroacetate]",200 to 500 nM,
"Cn1nc(-c2cccc(C(F)(F)F)c2)c2scc(-c3ccncc3)c2c1=O [Example 114, 5-methyl-3-(pyridin-4-yl)-7-[3-(trifluoromethyl)phenyl]thieno[2,3-d]pyridazin-4(5H)-one trifluoroacetate]",100 to 200 nM,
"Cn1nc(-c2ccccc2F)c2scc(-c3ccncc3)c2c1=O [Example 115, 7-(2-fluorophenyl)-5-methyl-3-(pyridin-4-yl)thieno[2,3-d]pyridazin-4(5H)-one trifluoroacetate]",200 to 500 nM,
"Cn1nc(-c2cccc(F)c2)c2scc(-c3ccncc3)c2c1=O [Example 116, 7-(3-fluorophenyl)-5-methyl-3-(pyridin-4-yl)thieno[2,3-d]pyridazin-4(5H)-one trifluoroacetate]",200 to 500 nM,
"Cn1nc(-c2ccc(C(F)(F)F)cc2)c2scc(-c3ccncc3)c2c1=O [Example 117, 5-methyl-3-(pyridin-4-yl)-7-[4-(trifluoromethyl)phenyl]thieno[2,3-d]pyridazin-4(5H)-one trifluoroacetate]",100 to 200 nM,
"CN(C)c1cccc(-c2nn(C)c(=O)c3c(-c4ccncc4)csc23)c1 [Example 119, 7-[3-(dimethylamino)phenyl]-5-methyl-3-(pyridin-4-yl)thieno[2,3-d]pyridazin-4(5H)-one bis(trifluoroacetate)]",< 100 nM,
"Cc1cc(-c2nn(C)c(=O)c3c(-c4ccncc4)csc23)ccn1 [Example 120, 5-methyl-7-(2-methylpyridin-4-yl)-3-(pyridin-4-yl)thieno[2,3-d]pyridazin-4(5H)-one bis(trifluoroacetate)]",< 100 nM,
"Cc1ccc(-c2nn(C)c(=O)c3c(-c4ccncc4)csc23)cc1 [Example 121, 5-methyl-7-(4-methylphenyl)-3-(pyridin-4-yl)thieno[2,3-d]pyridazin-4(5H)-one trifluoroacetate]",100 to 200 nM,
"Cn1nc(OCc2ccc3c(c2)CNC3)c2scc(-c3ccncc3)c2c1=O [Example 126, 7-(2,3-dihydro-1H-isoindol-5-ylmethoxy)-5-methyl-3-(pyridin-4-yl)thieno[2,3-d]pyridazin-4(5H)-one bis(trifluoroacetate)]",200 to 500 nM,
"N#CCCn1nc(-c2ccncc2)c2scc(-c3ccncc3)c2c1=O [Example 140, 3-[4-oxo-3,7-di(pyridin-4-yl)thieno[2,3-d]pyridazin-5(4H)-yl]propanenitrile]",100 to 200 nM,
"methyl 3-({[5-methyl-4-oxo-3-(pyridin-4-yl)-4,5-dihydrothieno[2,3-d]pyridazin-7-yl]oxy}methyl)benzoate trifluoroacetate [Example 72]",< 100 nM,
